Experiments:
[1] = Lipophilicity, log D of compound; assay type: physicochemical; settings: octanol/water
CYP2C9 = CYP2C9 (Homo sapiens, UniProt P11712); assay: Inhibition of CYP2C9 (unknown origin) at 10 uM relative to control; assay type: ADME
[2] = Oral bioavailability in mouse at 10 mg/kg; assay type: ADME, organism-based; settings: in vivo
[3] = target: T1, Histone-lysine N-methyltransferase EHMT1 (Homo sapiens, UniProt Q9H9B1); assay: Inhibition of GLP (unknown origin)
T1 sequence (Q9H9B1 whole entry): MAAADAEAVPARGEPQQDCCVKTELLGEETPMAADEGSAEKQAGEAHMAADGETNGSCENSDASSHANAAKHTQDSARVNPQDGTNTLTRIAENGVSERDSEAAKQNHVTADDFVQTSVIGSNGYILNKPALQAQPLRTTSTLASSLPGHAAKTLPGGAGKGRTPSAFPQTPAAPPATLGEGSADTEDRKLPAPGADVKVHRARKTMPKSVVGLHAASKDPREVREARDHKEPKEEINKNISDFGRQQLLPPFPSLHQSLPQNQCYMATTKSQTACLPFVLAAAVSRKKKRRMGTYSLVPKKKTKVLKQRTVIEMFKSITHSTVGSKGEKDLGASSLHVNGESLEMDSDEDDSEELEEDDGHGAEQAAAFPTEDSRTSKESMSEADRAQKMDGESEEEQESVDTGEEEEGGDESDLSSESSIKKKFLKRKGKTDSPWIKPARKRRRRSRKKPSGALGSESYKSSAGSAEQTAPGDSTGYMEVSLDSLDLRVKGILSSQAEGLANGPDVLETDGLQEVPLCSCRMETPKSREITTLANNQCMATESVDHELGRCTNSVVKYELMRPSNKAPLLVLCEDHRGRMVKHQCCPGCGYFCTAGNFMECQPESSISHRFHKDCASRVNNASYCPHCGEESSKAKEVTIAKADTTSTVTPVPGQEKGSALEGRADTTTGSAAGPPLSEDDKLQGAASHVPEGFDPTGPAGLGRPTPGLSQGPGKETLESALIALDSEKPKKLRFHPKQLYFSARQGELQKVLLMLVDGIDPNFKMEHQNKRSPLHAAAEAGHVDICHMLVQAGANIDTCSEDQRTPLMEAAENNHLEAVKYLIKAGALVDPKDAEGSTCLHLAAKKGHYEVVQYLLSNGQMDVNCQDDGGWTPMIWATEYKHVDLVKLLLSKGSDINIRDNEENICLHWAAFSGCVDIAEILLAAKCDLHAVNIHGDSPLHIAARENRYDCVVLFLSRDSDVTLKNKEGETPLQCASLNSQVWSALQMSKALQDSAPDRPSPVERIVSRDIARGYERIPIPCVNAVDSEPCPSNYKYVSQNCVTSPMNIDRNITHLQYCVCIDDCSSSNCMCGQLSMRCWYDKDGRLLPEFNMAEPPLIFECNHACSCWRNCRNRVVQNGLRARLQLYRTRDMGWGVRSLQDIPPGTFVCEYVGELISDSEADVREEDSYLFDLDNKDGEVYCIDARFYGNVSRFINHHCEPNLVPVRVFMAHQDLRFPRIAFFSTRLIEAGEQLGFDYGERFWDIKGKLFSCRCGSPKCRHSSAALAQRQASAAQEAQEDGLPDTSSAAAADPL

[4] = AUC (0 to infinity) in mouse at 1 mg/kg, iv; assay type: ADME, organism-based; set-up: time infinity, route intravenous, dose 1 mg/kg; settings: in vivo
[5] = Metabolic stability in human liver microsomes assessed as compound remaining at 0.5 mg/mL incubated for 0.5 hrs; assay type: ADME, Microsome; settings: read-out: Stabilty
[6] = target: T2, Histone-lysine N-methyltransferase EHMT2 (Homo sapiens, UniProt Q96KQ7); assay: Inhibition G9a (unknown origin)
T2 sequence (Q96KQ7 whole entry): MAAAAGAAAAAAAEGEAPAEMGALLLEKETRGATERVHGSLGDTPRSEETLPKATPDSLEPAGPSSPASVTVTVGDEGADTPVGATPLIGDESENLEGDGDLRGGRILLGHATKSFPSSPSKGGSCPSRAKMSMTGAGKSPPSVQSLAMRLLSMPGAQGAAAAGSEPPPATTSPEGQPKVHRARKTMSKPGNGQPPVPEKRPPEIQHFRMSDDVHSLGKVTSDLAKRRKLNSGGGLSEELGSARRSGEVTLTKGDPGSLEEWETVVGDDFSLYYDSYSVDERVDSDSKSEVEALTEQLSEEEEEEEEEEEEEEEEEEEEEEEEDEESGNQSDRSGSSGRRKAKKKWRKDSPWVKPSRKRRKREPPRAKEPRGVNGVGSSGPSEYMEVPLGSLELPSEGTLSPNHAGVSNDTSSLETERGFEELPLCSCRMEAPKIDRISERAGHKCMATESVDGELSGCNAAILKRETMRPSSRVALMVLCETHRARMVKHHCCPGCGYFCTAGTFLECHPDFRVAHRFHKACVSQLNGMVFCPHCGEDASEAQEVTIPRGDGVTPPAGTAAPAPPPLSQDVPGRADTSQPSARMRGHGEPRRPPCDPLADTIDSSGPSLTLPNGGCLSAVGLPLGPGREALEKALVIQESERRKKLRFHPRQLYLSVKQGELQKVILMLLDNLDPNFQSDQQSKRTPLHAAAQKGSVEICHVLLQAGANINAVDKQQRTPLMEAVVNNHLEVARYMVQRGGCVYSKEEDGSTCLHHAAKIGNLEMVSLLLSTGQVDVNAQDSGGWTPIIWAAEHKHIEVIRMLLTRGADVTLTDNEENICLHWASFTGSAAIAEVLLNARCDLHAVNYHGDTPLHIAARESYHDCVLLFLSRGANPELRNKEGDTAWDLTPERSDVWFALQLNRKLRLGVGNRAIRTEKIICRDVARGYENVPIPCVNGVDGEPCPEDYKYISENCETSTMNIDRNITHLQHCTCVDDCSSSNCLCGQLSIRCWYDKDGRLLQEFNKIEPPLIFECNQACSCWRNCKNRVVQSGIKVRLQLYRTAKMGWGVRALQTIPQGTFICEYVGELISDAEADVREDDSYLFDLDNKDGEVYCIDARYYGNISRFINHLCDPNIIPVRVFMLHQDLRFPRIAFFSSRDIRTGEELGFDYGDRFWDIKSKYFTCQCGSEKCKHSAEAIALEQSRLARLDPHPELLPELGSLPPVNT

Chain of CYP2C9 (P11712 whole entry): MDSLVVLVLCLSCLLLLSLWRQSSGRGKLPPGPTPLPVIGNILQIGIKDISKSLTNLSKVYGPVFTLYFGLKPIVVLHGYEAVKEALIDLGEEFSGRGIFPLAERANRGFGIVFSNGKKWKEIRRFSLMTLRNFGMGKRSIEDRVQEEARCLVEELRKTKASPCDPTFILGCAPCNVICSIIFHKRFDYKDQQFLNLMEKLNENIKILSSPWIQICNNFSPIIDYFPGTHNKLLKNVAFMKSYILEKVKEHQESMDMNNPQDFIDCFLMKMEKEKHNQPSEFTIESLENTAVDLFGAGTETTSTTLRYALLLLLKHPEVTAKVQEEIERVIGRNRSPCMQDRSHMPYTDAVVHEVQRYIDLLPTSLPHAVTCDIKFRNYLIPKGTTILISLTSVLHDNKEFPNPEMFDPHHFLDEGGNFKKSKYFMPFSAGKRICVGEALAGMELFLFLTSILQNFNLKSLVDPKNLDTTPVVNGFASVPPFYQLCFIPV

Structure (SMILES) | logD [1] | inhibition at 10 µM (CYP2C9) | bioavailability [2] | IC50 [3] | AUC(0-inf) [4] | remaining at 0.5 h [5] | IC50 [6]
CNc1cc(C)nc(Nc2ccc(OC)c(OCCCN3CCCC3)c2)n1 | 0.8 | 0% | 17% | 185 nM | 1.71 µM·h | 99% | 16.9 nM
CNc1cc(C)nc(Nc2ccc(OC)c(C3=CCNCCC3)c2)n1 | 0.5 | 0% | 40% | 32.3 nM | 0.79 µM·h | 96% | 4.31 nM

From ChEMBL document CHEMBL4725338, “Discovery of novel histone lysine methyltransferase G9a/GLP (EHMT2/1) inhibitors: Design, synthesis, and structure-activity relationships of 2,4-diamino-6-methylpyrimidines” (Bioorg Med Chem Lett, 2020)
